# Paper PMC10020809, “A Phase Ib/II Study of WNT974 + Encorafenib + Cetuximab in Patients With BRAF ^V600E-Mutant KRAS Wild-Type Metastatic Colorectal Cancer” (The Oncologist, 2023)
# Marks after values point to notes of the source that are not given here.
# B1: vantictumab: an anti-Frizzled antibody, given with chemotherapy (antibody, chains of the INN, looked up, V domains shown)
# VH: EVQLVESGGGLVQPGGSLRLSCAASGFTFSHYTLSWVRQAPGKGLEWVSVISGDGSYTYYADSVKGRFTISSDNSKNTLYLQMNSLRAEDTAVYYCARNFIKYVFANWGQGTLVTVSS
# VL: DIELTQPPSVSVAPGQTARISCSGDNIGSFYVHWYQQKPGQAPVLVIYDKSNRPSGIPERFSGSNSGNTATLTISGTQAEDEADYYCQSYANTLSLVFGGGTKLTVL
# Assays:
# [1] = Plasma pharmacokinetics, noncompartmental; format: in vivo, human; details: for t 1/2 / AUC(0-t) / AUC / Cmax / half-life: mean (SD); for AUC(0-t) / AUC / Cmax / half-life / Tmax: human, plasma, oral
# Method: To assess plasma concentrations of WNT974, its active metabolite LHA333, and encorafenib, serial blood samples were collected on days 1 and 15 of cycle 1, and pre-dose blood samples were collected on days 2, 8, 16, and 22 of cycle 1, and on day 1 of cycles 2, 3, and 4. PK parameters were determined using noncompartmental methods. The PK analysis set included all patients with at least one available valid PK concentration measurement who received at least one dose of study drug.
# [2] = tested on: patients with advanced solid tumors; design: method as in PMID 33941878; details: cited from earlier work
# CRC preclinical models = tested on: CRC preclinical models; design: method as in PMID 31233627, PMID 28695896, PMID 23847203; details: in vitro and in vivo; cited from earlier work
# [3] = tested on: patients with BRAF V600E-mutant mCRC with RNF43 mutations or RSPO fusions; assay: Safety: adverse events (CTCAE v4.03), phase Ib; details: human, in vivo
# Method: Patients who developed hypercalcemia (any grade) were treated with bisphosphonates per institutional standards.
# The primary endpoints of the phase Ib study were the incidence of DLTs and exposure to WNT974 and encorafenib as measured by PK parameters. A DLT was defined as an AE or abnormal laboratory value assessed as unrelated to disease, disease progression, intercurrent illness, or concomitant medications that occurred within the first 28 days of treatment with WNT974 + encorafenib + cetuximab. The secondary endpoints for this study included the objective response rate (ORR; RECIST 1.1), disease control rate (DCR), and frequency and severity of AEs (Common Terminology Criteria for Adverse Events v4.03).
# Tumor assessments were performed at baseline (screening) and every 6 weeks after starting study treatment until disease progression, initiation of subsequent antineoplastic therapy, or death, whichever occurred first. End-of-treatment tumor assessment was conducted within 14 days of receiving the last dose or treatment discontinuation. Safety was assessed throughout the study and included physical examinations, vital signs, weight, performance status evaluation, laboratory evaluations, dermatologic evaluations, ophthalmological examinations, bone loss assessments, cardiac assessments, and documentation of all non-serious and serious AEs (SAEs). […]
# [4] = tested on: patients with advanced solid tumors; HER2-negative breast cancer or pancreatic cancer; details: in vivo; cited from earlier work
# [5] = 200 mg, All cohorts, encorafenib 200 mg once daily, day 15 of cycle 1, plasma
# [6] = COMBO5, day 15 of cycle 1, plasma
# [7] = COMBO7.5, day 15 of cycle 1, plasma
# [8] = COMBO10, day 15 of cycle 1, plasma
molecule,measurement,setting,value
"COC(=O)N[C@@H](C)CNc1nccc(-c2cn(C(C)C)nc2-c2cc(Cl)cc(NS(C)(=O)=O)c2F)n1 [Encorafenib, encorafenib]",t 1/2,"[1]; All cohorts, encorafenib 200 mg once daily, day 15 of cycle 1, plasma",4.29 (2.42)^b h
same,T max,"[1]; All cohorts, encorafenib 200 mg once daily, day 15 of cycle 1, plasma, median (range)",1.95 (0.48-7.17) h
same,Mean AUC and maximum plasma drug concentration across treatment combinations,[1]; day 15 of cycle 1,generally comparable across all treatment combinations
same,AUC(0-t),"[1]; 200 mg, All cohorts (N = 17), encorafenib 200 mg once daily, day 15 of cycle 1, plasma",13.7 µg·h/mL
same,AUC,[1]; [5],13.8 µg·h/mL
same,Cmax,[1]; [5],2.84 µg/mL
same,half-life,[1]; [5],4.3 h
same,Tmax,"[1]; 200 mg, All cohorts, encorafenib 200 mg once daily, day 15 of cycle 1, plasma, median (range)",~2 h
Cc1cc(-c2ncc(CC(=O)Nc3ccc(-c4cnccn4)cn3)cc2C)ccn1 [WNT974],AE frequency: decreased appetite,[2]; across all doses,45.7%
same,AE frequency: dysgeusia,[2]; across all doses,50%
same,AE frequency: fatigue,[2]; across all doses,31.9%
same,AE frequency: nausea,[2]; across all doses,33.0%
same,AE frequency: vomiting,[2]; across all doses,30.9%
same,Bone-related toxicities considered related to the study treatment,[2],5
same,Number of bone-related toxicities,[2],7
same,Patients who experienced bone-related toxicities,[2],6 patients
same,t 1/2,[1]; [6],4.74 (2.17) h
same,t 1/2,[1]; [7],5.37 (0.697) h
same,Dose dependence of mean AUC,"[1]; WNT974 5, 7.5, 10 mg, day 15 of cycle 1",increased in a dose-proportional manner
same,AUC(0-t),"[1]; COMBO5 (5 mg WNT974 once daily + encorafenib + cetuximab), day 15 of cycle 1, plasma",0.22 µg·h/mL
same,AUC,[1]; [6],0.227 µg·h/mL
same,Cmax,[1]; [6],0.051 µg/mL
same,half-life,[1]; [6],4.7 h
same,Tmax,"[1]; COMBO5, day 15 of cycle 1, plasma, median (range)",1 h
same,AUC(0-t),"[1]; COMBO7.5 (7.5 mg WNT974 once daily + encorafenib + cetuximab), day 15 of cycle 1, plasma",0.384 µg·h/mL
same,AUC,[1]; [7],0.384 µg·h/mL
same,Cmax,[1]; [7],0.0934 µg/mL
same,half-life,[1]; [7],5.4 h
same,Tmax,"[1]; COMBO7.5, day 15 of cycle 1, plasma, median (range)",1.02 h
same,AUC(0-t),"[1]; COMBO10 (10 mg WNT974 once daily + encorafenib + cetuximab), day 15 of cycle 1, plasma",0.46 µg·h/mL
same,AUC,[1]; [8],0.542 µg·h/mL
same,Cmax,[1]; [8],0.0429 µg/mL
same,half-life,[1]; [8],11 h
same,Tmax,"[1]; COMBO10, day 15 of cycle 1, plasma, median (range)",4 h
same,Anti-tumor activity,CRC preclinical models,demonstrated anti-tumor activity
same,Reported serious AEs of bone fracture,[3],6
B1,Tolerability / bone safety in phase I trials,[4],closed early due to high rates of bone fracture
